Results reported in paper PMC9964602, “Myxinidin-Derived Peptide against Biofilms Caused by Cystic Fibrosis Emerging Pathogens” (International Journal of Molecular Sciences, 2023).
Like-named read-outs stand apart in the source and are kept apart here. Where a SMILES comes first, the peptide text is derived from it. [ ]: non-standard residue; d: D form. Dap = NC[C@H](N)C(=O)O; Aib = CC(C)(N)C(=O)O

Assays:
S. maltophilia DSM 50170 = experiment: microbe, parasite or virus in culture; assay type: cell-based, Stenotrophomonas maltophilia
Description: (§1) Candida albicans ATCC 90028, Achromobacter xylosoxidans DSM 2402, and Stenotrophomonas maltophilia DSM 50170 were used in this study. Microbial strains were grown in Tryptone Soya Broth (TSB, VWR chemicals, Leuven, Belgium), supplemented with 0.1% glucose only for C. albicans at 37 °C overnight. Then, cells were harvested by centrifugation at 5000 rpm, 4 °C for 10 min, followed by washing in Phosphate Buffered Saline (PBS, Oxoid Ltd., Basingstoke, UK) three times. Standardized 1 × 10^6 CFU mL^-^1 inoculum was used in the next experiments. The minimum inhibitory concentrations (MIC) of WMR-4 against C. albicans, A. xylosoxidans, and S. maltophilia were determined using a broth microdilution method accord-ing to CLSI M27-A3 and […]-A9 guidelines. Concentrations of WMR-4 from 0.5 to 50 μM were added to wells of a 96-well microplate containing 1 × 10^6 CFU mL^-1 cells. Fluconazole at a concentration range from 1 to 50 μM and meropenem at a concentration range from 10 to 200 μM were used as control. The plate was incubated at 37 °C for 24/48 h due to poor growth after 24 h for the two bacterial species. Next, the absorbance at 590 nm was read using a microplate reader (Synergy H4; BioTek Instruments, Agilent Technologies, Winooski, VT, USA). MIC value was defined as a lowest concentration of WMR and analogues able to inhibit total microbial growth.

in vitro = in vitro ADME, bovine; details: serum
Description: The proteolytic stability of WMR and WMR-4 were determined in bovine serum acquired from ThermoFisher Scientific (Milan, Italy). Peptides were dissolved in sterile water to prepare stock solutions, then incubated with 50% of bovine serum to obtain a final concentration of 200 μM [69]. The mixture peptide/serum was incubated at 37 ± 1 °C for different times (0.25, 0.50, 1, 2, 3, 4, 5, and 16 h). At each pre-established time, an aliquot of reaction was taken, and acetonitrile was added to favor the precipitation of serum proteins. Then, the solution was cooled at 4 °C and centrifuged for 15 min at 13,000× g rpm. The supernatant was analyzed by HPLC in a Phenomenex Jupiter 4 μm Proteo 90 Å 250 × 21.20 mm column with a linear gradient of solvent B (0.1% TFA in acetonitrile) in solvent A (0.1% TFA in water) from 5 to 70% in 20 min with UV detection at 210 nm and a flow rate of 1 mL/min.

A. xylosoxidans DSM 2402 = experiment: microbe, parasite or virus in culture; assay type: cell-based, Achromobacter xylosoxidans
Description: as §1

C. albicans ATCC 90028 = assay type: cell-based, Candida albicans; details: ATCC 90028, 48 h
Description: as §1

Row | MIC (S. maltophilia DSM 50170; DSM 50170, 48 h) [µM] | MIC (A. xylosoxidans DSM 2402; DSM 2402, 48 h) [µM] | Compound | further results
1 | 25 | 25 | CC[C@H](C)[C@H](NC(=O)[C@H](CCCNC(=N)N)NC(=O)[C@H](CCCNC(=N)N)NC(=O)[C@@H](NC(=O)C(C)(C)NC(=O)[C@@H](N)Cc1c[nH]c2ccccc12)[C@@H](C)CC)C(=O)N[C@@H](CC(C)C)C(=O)N[C@@H](CCCCN)C(=O)N[C@@H](Cc1ccc(O)cc1)C(=O)NCC(=O)N[C@@H](CCCCN)C(=O)N[C@@H](CCCNC(=N)N)C(=O)N[C@H](CO)C(=O)N[C@H](CCCCN)C(N)=O [WMR-4] (H-W[Aib]IRRILKYGKR[dS][dK]-NH2) | remaining at 5 h, 200 μM (in vitro): 70%; remaining at 16 h, 200 μM (in vitro): ~30%; MIC (C. albicans ATCC 90028): 50 µM
2 | 25 | 25 | CC[C@H](C)[C@H](NC(=O)CNC(=O)[C@@H](N)Cc1c[nH]c2ccccc12)C(=O)N[C@@H](CCCNC(=N)N)C(=O)N[C@@H](CCCNC(=N)N)C(=O)N[C@H](C(=O)N[C@@H](CC(C)C)C(=O)N[C@@H](CCCCN)C(=O)N[C@@H](Cc1ccc(O)cc1)C(=O)NCC(=O)N[C@@H](CCCCN)C(=O)N[C@@H](CCCNC(=N)N)C(=O)N[C@@H](CO)C(=O)N[C@@H](CN)C(N)=O)[C@@H](C)CC [WMR-5] (H-WGIRRILKYGKRS[Dap]-NH2) | 
3 | 50 | 50 | CC[C@H](C)[C@H](NC(=O)CNC(=O)[C@@H](N)Cc1c[nH]c2ccccc12)C(=O)N[C@@H](CCCNC(=N)N)C(=O)N[C@@H](CCCNC(=N)N)C(=O)N[C@H](C(=O)N[C@@H](CC(C)C)C(=O)N[C@@H](CCCCN)C(=O)N[C@@H](Cc1ccc(O)cc1)C(=O)NCC(=O)N[C@@H](CCCCN)C(=O)N[C@@H](CCCNC(=N)N)C(=O)N[C@@H](CO)C(=O)N[C@@H](CCCCN)C(N)=O)[C@@H](C)CC [WMR] (H-WGIRRILKYGKRSK-NH2) | remaining at 0.25 h, 200 μM (in vitro): 75%; remaining at 0.5 h, 200 μM (in vitro): 75%; remaining at 1 h, 200 μM (in vitro): 68%; remaining at 2 h, 200 μM (in vitro): 53%; remaining at 3 h, 200 μM (in vitro): 36%; remaining at 5 h, 200 μM (in vitro): 20%

More lines, now with the values behind:

Row | Compound | MIC (S. maltophilia DSM 50170; DSM 50170, 48 h) [µM] | MIC (A. xylosoxidans DSM 2402; DSM 2402, 48 h) [µM] | further results
4 | C[C@@H](O)[C@H]1C(=O)N2C(C(=O)O)=C(S[C@@H]3CN[C@H](C(=O)N(C)C)C3)[C@H](C)[C@H]12 [MEM, meropenem, reference compound] |  |  | MIC (S. maltophilia DSM 50170; Stenotrophomonas maltophilia, DSM50170, S. maltophilia DSM 50170, control drug, value outside parentheses, read-out: MIC): 130 µg/mL; MIC (A. xylosoxidans DSM 2402; Achromobacter xylosoxidans, DSM2402, A. xylosoxidans DSM 2402, control drug, value outside parentheses, read-out: MIC): 65 µg/mL
5 | CC[C@H](C)[C@H](NC(=O)CNC(=O)[C@@H](N)Cc1c[nH]c2ccccc12)C(=O)N[C@@H](CCCNC(=N)N)C(=O)N[C@@H](CCCNC(=N)N)C(=O)N[C@H](C(=O)N[C@@H](CC(C)C)C(=O)N[C@@H](CCCCN)C(=O)N[C@@H](Cc1ccc(O)cc1)C(=O)NCC(=O)N[C@@H](CCCCN)C(=O)N[C@@H](CCCNC(=N)N)C(=O)N[C@H](CO)C(=O)N[C@@H](CCCCN)C(N)=O)[C@@H](C)CC [WMR-2] (H-WGIRRILKYGKR[dS]K-NH2) | > 50 | > 50 | 
6 | CC[C@H](C)[C@H](NC(=O)CNC(=O)[C@@H](N)Cc1c[nH]c2ccccc12)C(=O)N[C@@H](CCCNC(=N)N)C(=O)N[C@@H](CCCNC(=N)N)C(=O)N[C@H](C(=O)N[C@@H](CC(C)C)C(=O)N[C@@H](CCCCN)C(=O)N[C@@H](Cc1ccc(O)cc1)C(=O)NCC(=O)N[C@@H](CCCCN)C(=O)N[C@@H](CCCNC(=N)N)C(=O)N[C@@H](CO)C(=O)N[C@H](CCCCN)C(N)=O)[C@@H](C)CC [WMR-1] (H-WGIRRILKYGKRS[dK]-NH2) | > 50 | > 50 | 
7 | CC[C@H](C)[C@H](NC(=O)[C@H](CCCNC(=N)N)NC(=O)[C@H](CCCNC(=N)N)NC(=O)[C@@H](NC(=O)C(C)(C)NC(=O)[C@@H](N)Cc1c[nH]c2ccccc12)[C@@H](C)CC)C(=O)N[C@@H](CC(C)C)C(=O)N[C@@H](CCCCN)C(=O)N[C@@H](Cc1ccc(O)cc1)C(=O)NCC(=O)N[C@@H](CCCCN)C(=O)N[C@@H](CCCNC(=N)N)C(=O)N[C@@H](CO)C(=O)N[C@@H](CCCCN)C(N)=O [WMR-3] (H-W[Aib]IRRILKYGKRSK-NH2) | > 50 | > 50 | 
